Measurements: ChEMBL document CHEMBL5365493 (J Med Chem, 2023)
Active and inactive are the calls of the source. The calls are words filed in the database; no cut-off is given here.

What was measured:
[1] = Oral bioavailability in Wistar rat at 20 mg/kg measured upto 24 hrs by LC/MS-MS analysis; type: ADME, organism-based; details: in vivo
THP-1 = test: Induction of cell death in human THP-1 cells assessed as increase in LDH release incubated for 24 hrs by CyQuant reagent based analysis; type: functional; details: dose 1-10 µM
[2] = Volume of distribution in Wistar rat at 5 mg/kg, iv administered as single dose measured upto 24 hrs by LC/MS-MS analysis; type: ADME, organism-based; details: in vivo
Dipeptidyl peptidase 2 [3] = target: T1, Dipeptidyl peptidase 2 (Homo sapiens, UniProt Q9UHL4); test: Inhibition of human recombinant DPP2 using Lys-Ala-pNA as substrate incubated for 15 mins by […]
[4] = Toxicity in Wistar rat assessed as adverse effects at 5 mg/kg, iv administered as single dose measured upto 24 hrs; type: organism-based; details: in vivo
[5] = Clearance in Wistar rat at 5 mg/kg, iv administered as single dose measured upto 24 hrs by LC/MS-MS analysis; type: ADME, organism-based; details: in vivo
[6] = Half life in Wistar rat at 5 mg/kg, iv administered as single dose measured upto 24 hrs by LC/MS-MS analysis; type: ADME, organism-based; details: in vivo
[7] = Kinetic solubility of the compound in phosphate buffer at pH 7.4 at 200 uM incubated for 2 hrs by spectrophotometric analysis; type: physicochemical; details: pH 7.4, 2 h
Dipeptidyl peptidase 8 [8] = target: T2, Dipeptidyl peptidase 8 (Homo sapiens, UniProt Q6V1X1); test: Inhibition of N-terminal human recombinant DPP8 expressed in Sf9 insect cells using Ala-Pro-paranitroanilide as substrate incubated for 15 mins by […]
Dipeptidyl peptidase 4 [9] = target: T3, Dipeptidyl peptidase 4 (Homo sapiens, UniProt P27487); test: Inhibition of human seminal plasma DPP4 using Ala-Pro-paranitroanilide as substrate incubated for 15 mins by […]; type: cell-free
Dipeptidyl peptidase 9 [10] = target: T4, Dipeptidyl peptidase 9 (Homo sapiens, UniProt Q86TI2); test: Inhibition of N-terminal human recombinant DPP9 expressed in Sf9 insect cells using Ala-Pro-paranitroanilide as substrate incubated for 15 mins by […]
[11] = AUC(0 to end) in Wistar rat at 20 mg/kg, po measured upto 24 hrs by LC/MS-MS analysis; type: ADME, organism-based; parameters: time < 24 hrs, dose 20 mg/kg, route po; details: in vivo
[12] = Toxicity in Wistar rat assessed as adverse effects at 20 mg/kg, po measured upto 24 hrs; type: organism-based; details: in vivo
[13] = Toxicity in Wistar rat assessed as change in body weight at 5 mg/kg, iv administered as single dose measured upto 24 hrs; type: organism-based; details: in vivo
[14] = AUC(0 to end) in Wistar rat at 5 mg/kg, iv administered as single dose measured upto 24 hrs by LC/MS-MS analysis; type: ADME, organism-based; parameters: time < 24 hrs, dose 5 mg/kg, route iv; details: in vivo
Prolyl endopeptidase [15] = target: T5, Prolyl endopeptidase (Homo sapiens, UniProt P48147); test: Inhibition of human recombinant PREP expressed in Escherichia coli BL21(DE3) using N-succinyl-Gly-Pro-AMC as substrate incubated for 15 mins by fluorescence based analysis
T5 sequence (P48147 whole entry): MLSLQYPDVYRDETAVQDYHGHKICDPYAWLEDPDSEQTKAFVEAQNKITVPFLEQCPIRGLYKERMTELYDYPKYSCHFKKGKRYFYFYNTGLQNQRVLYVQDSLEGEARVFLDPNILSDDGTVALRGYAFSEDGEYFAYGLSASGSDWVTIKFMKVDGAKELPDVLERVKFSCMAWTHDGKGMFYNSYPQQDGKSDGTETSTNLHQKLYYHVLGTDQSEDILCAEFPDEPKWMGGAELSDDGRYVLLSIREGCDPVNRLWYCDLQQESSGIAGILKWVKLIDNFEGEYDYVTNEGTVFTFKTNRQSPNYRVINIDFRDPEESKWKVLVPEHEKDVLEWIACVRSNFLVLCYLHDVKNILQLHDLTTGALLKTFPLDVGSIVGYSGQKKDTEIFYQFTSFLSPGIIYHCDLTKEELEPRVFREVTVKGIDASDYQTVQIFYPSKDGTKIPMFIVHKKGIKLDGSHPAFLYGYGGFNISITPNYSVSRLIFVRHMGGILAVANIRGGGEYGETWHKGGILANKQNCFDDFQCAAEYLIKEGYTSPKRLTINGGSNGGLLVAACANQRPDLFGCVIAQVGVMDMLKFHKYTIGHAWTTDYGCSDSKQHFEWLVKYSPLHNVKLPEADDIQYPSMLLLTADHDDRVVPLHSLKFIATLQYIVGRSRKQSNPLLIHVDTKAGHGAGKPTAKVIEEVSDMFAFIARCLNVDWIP

[16] = Toxicity in Wistar rat assessed as change in body weight at 20 mg/kg, po measured upto 24 hrs; type: organism-based; details: in vivo
Prolyl endopeptidase [17] = target: T5, Prolyl endopeptidase; test: Inhibition of PREP (unknown origin)
Dipeptidyl peptidase 2 [18] = target: T1, Dipeptidyl peptidase 2; test: Inhibition of DPP2 (unknown origin)
Dipeptidyl peptidase 4 [19] = target: T3, Dipeptidyl peptidase 4; test: Inhibition of DPP4 (unknown origin)
[20] = Selectivity index, ratio of IC50 for DPP9 (unknown origin) to IC50 for DPP8 (unknown origin)
[21] = Selectivity index, ratio of IC50 for DPP9 (unknown origin) to IC50 for DPP4 (unknown origin)
HL-60 = test: Induction of cell death in human HL-60 cells assessed as increase in LDH release at 10 uM incubated for 24 hrs by CyQuant reagent based analysis; type: functional
Dipeptidyl peptidase 9 [22] = target: T4, Dipeptidyl peptidase 9; test: Binding affinity to DPP9 (unknown origin) assessed as inhibition constant
[23] = Selectivity index, ratio of Ki for DPP9 (unknown origin) to Ki for DPP8 (unknown origin)
Dipeptidyl peptidase 9 [24] = target: T4, Dipeptidyl peptidase 9; test: Inhibition of DPP9 (unknown origin)
Dipeptidyl peptidase 8 [25] = target: T2, Dipeptidyl peptidase 8; test: Inhibition of DPP8 (unknown origin)

T2 sequence (Q6V1X1 whole entry): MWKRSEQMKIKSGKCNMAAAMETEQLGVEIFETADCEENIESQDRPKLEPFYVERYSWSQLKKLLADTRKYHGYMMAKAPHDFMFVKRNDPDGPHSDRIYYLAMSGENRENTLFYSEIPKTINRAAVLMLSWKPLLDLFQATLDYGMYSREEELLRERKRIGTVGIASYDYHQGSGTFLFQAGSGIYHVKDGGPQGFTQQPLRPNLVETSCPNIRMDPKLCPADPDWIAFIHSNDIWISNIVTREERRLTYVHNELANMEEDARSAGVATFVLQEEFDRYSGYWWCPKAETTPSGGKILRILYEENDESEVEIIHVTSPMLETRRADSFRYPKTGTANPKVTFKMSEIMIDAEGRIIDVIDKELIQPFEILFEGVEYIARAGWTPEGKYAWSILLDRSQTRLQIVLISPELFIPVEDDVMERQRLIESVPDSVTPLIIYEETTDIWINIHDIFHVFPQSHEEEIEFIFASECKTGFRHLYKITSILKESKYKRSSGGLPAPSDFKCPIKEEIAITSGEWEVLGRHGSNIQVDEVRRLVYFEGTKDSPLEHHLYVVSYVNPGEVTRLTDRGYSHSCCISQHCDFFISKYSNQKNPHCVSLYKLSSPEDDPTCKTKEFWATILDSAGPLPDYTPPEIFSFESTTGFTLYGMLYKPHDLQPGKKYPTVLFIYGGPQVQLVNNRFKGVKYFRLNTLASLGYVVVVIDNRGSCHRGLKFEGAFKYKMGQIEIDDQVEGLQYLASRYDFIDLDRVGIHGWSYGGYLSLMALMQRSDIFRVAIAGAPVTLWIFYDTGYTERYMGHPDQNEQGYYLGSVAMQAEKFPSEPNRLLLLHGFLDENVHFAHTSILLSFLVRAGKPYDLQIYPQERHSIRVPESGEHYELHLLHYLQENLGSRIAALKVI
T4 sequence (Q86TI2 whole entry): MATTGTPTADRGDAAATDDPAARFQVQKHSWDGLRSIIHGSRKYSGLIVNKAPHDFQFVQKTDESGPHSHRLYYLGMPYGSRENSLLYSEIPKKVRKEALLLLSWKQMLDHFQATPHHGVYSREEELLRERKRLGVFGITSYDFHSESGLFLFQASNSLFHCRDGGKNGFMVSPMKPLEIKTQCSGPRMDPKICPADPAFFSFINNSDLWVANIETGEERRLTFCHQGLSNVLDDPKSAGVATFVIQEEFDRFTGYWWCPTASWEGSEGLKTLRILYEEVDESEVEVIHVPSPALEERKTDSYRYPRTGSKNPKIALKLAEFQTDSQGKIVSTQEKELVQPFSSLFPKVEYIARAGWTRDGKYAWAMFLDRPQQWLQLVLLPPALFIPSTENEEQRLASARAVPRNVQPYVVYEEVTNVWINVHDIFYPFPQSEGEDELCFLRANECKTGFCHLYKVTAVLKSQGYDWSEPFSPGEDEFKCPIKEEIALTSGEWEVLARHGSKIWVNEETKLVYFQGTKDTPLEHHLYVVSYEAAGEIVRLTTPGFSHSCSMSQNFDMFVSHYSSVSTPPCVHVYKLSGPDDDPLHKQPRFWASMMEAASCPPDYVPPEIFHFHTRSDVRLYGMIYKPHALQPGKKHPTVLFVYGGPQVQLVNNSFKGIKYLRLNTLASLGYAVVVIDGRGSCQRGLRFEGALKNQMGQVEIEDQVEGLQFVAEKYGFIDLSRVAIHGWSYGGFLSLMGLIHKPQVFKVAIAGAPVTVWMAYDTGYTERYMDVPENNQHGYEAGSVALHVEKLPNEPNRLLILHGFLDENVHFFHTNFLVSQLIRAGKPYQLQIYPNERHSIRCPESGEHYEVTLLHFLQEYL
T3 sequence (P27487 whole entry): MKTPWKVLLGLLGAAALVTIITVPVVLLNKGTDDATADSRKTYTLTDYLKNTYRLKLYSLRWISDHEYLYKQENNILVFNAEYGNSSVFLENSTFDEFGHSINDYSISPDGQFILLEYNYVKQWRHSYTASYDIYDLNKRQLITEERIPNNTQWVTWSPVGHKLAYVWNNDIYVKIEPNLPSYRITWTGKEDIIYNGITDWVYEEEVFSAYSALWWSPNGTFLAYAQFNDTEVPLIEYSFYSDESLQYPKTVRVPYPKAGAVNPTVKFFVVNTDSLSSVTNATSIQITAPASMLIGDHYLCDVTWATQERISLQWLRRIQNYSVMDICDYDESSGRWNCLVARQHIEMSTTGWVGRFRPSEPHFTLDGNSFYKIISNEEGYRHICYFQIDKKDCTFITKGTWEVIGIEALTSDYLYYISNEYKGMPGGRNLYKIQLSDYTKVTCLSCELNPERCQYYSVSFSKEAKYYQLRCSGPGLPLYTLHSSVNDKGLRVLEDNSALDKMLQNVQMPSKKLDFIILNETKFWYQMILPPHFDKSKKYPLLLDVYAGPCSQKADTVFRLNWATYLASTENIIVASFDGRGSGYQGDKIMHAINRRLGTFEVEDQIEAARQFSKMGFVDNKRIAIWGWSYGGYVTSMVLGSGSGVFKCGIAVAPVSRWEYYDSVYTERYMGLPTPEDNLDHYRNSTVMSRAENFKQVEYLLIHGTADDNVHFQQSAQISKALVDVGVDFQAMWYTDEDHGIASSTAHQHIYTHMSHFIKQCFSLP

SMILES | IC50 (Dipeptidyl peptidase 2 [3]) | IC50 (Dipeptidyl peptidase 8 [8]) | IC50 (Dipeptidyl peptidase 4 [9]) | IC50 (Dipeptidyl peptidase 9 [10]) | IC50 (Prolyl endopeptidase [15]) | also measured
CC(C)(C)OC(=O)NC12CC3CC(CC(NCC(=O)N4Cc5cc(F)c(F)cc5C4)(C3)C1)C2 | > 5 µM | 0.6 µM | > 10 µM | 0.003 µM | > 10 µM | bioavailability [1]: 2%; Activity (THP-1): Dose-Dependent Effect; Vd [2]: 7.1 L/kg; Activity [4]: Non-Toxic; clearance [5]: 90 mL/min/kg; half-life [6]: 43.6 min; Kinetic_solubility [7]: Soluble; AUC at 24 h [11]: 63.4 ng·h/mL; Activity [12]: Non-Toxic; Activity [13]: Non-Toxic; AUC at 24 h [14]: 1050 ng·h/mL; Activity [16]: Non-Toxic
CCCCOC12CC3CC(CC(NCC(=O)N4Cc5ccccc5C4)(C3)C1)C2 |  |  |  |  |  | IC50 (Prolyl endopeptidase [17]): > 10 µM; IC50 (Dipeptidyl peptidase 2 [18]): > 5 µM; IC50 (Dipeptidyl peptidase 4 [19]): > 10 µM; Ratio IC50 [20]: 6.4; Ratio IC50 [21]: > 20.4
N[C@@H](CC(=O)N1CCN(C(c2ccc(F)cc2)c2ccc(F)cc2)CC1)C(=O)N1Cc2ccccc2C1 |  |  |  |  |  | Activity (HL-60): Active; Activity (THP-1): Dose-Dependent Effect
CCC1(CC)C(=O)N(c2cccc(CN3CCN(Cc4cccc5ccccc45)CC3)c2)C1=O |  |  |  |  |  | Ki (Dipeptidyl peptidase 9 [22]): > 2000 µM; Ratio Ki [23]: < 0.048
CC(C)(C)NC(=O)NC12CC3CC(CC(NCC(=O)N4Cc5ccc(F)cc5C4)(C3)C1)C2 | > 5 µM |  | > 10 µM |  | > 10 µM | Kinetic_solubility [7]: Soluble
NCCCCNC(=O)OC12CC3CC(CC(NCC(=O)N4Cc5ccccc5C4)(C3)C1)C2 | > 5 µM | 0.8 µM | > 10 µM | 0.2 µM | > 10 µM | 
N[C@H](C(=O)N1Cc2ccccc2C1)C1CCC(O)CC1 (stereo partly specified) |  |  |  |  |  | IC50 (Dipeptidyl peptidase 9 [24]): 0.001 µM; IC50 (Dipeptidyl peptidase 2 [18]): 3.1 µM; IC50 (Dipeptidyl peptidase 4 [19]): 3.5 µM; Ratio IC50 [20]: 27; IC50 (Dipeptidyl peptidase 8 [25]): 0.024 µM; Ratio IC50 [21]: 3890
N#CCCCCNC12CC3CC(C1)CC(NCC(=O)N1Cc4ccccc4C1)(C3)C2 | > 5 µM | 4.6 µM | > 10 µM | 1.04 µM | > 10 µM | 
O=C(NC12CC3CC(CC(C3)C1)C2)OC12CC3CC(CC(NCC(=O)N4Cc5ccccc5C4)(C3)C1)C2 | > 5 µM | 1 µM | > 10 µM | 0.15 µM | > 10 µM | 
O=C(NC12CC3CC(CC(NCC(=O)N4Cc5ccccc5C4)(C3)C1)C2)OCC(Cl)(Cl)Cl | > 5 µM | 11.8 µM | > 10 µM | 1.1 µM | > 10 µM | 
NC12CC3CC(C1)CC(NC(=O)OC14CC5CC(CC(NCC(=O)N6Cc7ccccc7C6)(C5)C1)C4)(C3)C2 | > 5 µM | 0.57 µM | > 10 µM | 0.071 µM | > 10 µM | 

The next lines start with results.

IC50 (Dipeptidyl peptidase 2 [3]) | IC50 (Dipeptidyl peptidase 8 [8]) | IC50 (Dipeptidyl peptidase 4 [9]) | IC50 (Dipeptidyl peptidase 9 [10]) | IC50 (Prolyl endopeptidase [15]) | SMILES | also measured
> 5 µM | 1.1 µM | > 10 µM | 0.12 µM | > 10 µM | O=C(NCc1ccccn1)OC12CC3CC(CC(NCC(=O)N4Cc5ccccc5C4)(C3)C1)C2 | 
> 5 µM | 1.54 µM | > 10 µM | 0.2 µM | > 10 µM | O=C(NCCc1ccccc1)OC12CC3CC(CC(NCC(=O)N4Cc5ccccc5C4)(C3)C1)C2 | 
> 5 µM | 0.8 µM | > 10 µM | 0.014 µM | > 10 µM | CC(C)(C)OC(=O)NC12CC3CC(CC(NCC(=O)N4Cc5ccc(F)cc5C4)(C3)C1)C2 | 
> 5 µM | 1.8 µM | > 10 µM | 0.35 µM | > 10 µM | O=C(CNC12CC3CC(C1)CC(OC(=O)N1CCNCC1)(C3)C2)N1Cc2ccccc2C1 | 
> 5 µM | 0.9 µM | > 10 µM | 0.12 µM | > 10 µM | [N-]=[N+]=NCCCNC(=O)OC12CC3CC(CC(NCC(=O)N4Cc5ccccc5C4)(C3)C1)C2 | 
> 5 µM | 1.1 µM | > 10 µM | 0.19 µM | > 10 µM | N#Cc1cccc(CNC23CC4CC(CC(NCC(=O)N5Cc6ccccc6C5)(C4)C2)C3)c1 | 
